Experimental data: US8846739B2, “TGR5 agonists” (Exelixis Patent Company LLC, priority 2009, dated 2014)
Where a name gives a salt, the structure may show the parent alone.

Experiments:
h-TGR5 = target: T1, h-TGR5 (Homo sapiens, UniProt Q8TDU6); assay: TGR5 cAMP Assay using Cisbio cAMP Dynamic 2 htrf assay kit; format: cell-based; conditions: hTGR5CRE-luc HEK 293 cells
T1 sequence (Q8TDU6 1-330): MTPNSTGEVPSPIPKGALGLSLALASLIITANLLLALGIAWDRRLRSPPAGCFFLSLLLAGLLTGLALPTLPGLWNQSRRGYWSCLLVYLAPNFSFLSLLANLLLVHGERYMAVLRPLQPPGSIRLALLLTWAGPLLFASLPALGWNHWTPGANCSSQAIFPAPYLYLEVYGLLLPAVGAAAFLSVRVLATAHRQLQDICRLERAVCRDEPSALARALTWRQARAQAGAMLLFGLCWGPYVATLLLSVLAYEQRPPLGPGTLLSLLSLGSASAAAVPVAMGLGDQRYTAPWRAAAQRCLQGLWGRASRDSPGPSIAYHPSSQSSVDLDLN

human TGR5 (h-TGR5) = target: T2, human TGR5 (h-TGR5) (Homo sapiens, UniProt Q8TDU6); assay: TGR5/CRE-Luciferase Assay; format: cell-based; conditions: HEK 293 hTGR5/CRE-Luc cells, 6 hours incubation, read-out: CRE-Luc Agonist (EC50)
T2 sequence (Q8TDU6 1-330): T1 sequence (Q8TDU6 1-330)
How it was run: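 HEK 293 CRE-Luciferase cells stably expressing the receptor, plated in DMEM 18-20 h before assay, then exposed to serially diluted compounds (DMEM with 5% DMSO) for 6 h. Luciferase read-out after lysis; EC50 from dose-response.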

| EC50 (h-TGR5) [nM] | EC50 (human TGR5 (h-TGR5)) [nM] | Structure (SMILES) |
| --- | --- | --- |
| < 100 | < 100 | COc1cc(-n2c(C(C)(C)c3ccc(S(N)(=O)=O)c(Cl)c3)cnc2SCc2c(F)cc(CCC[N+](C)(C)C)cc2F)ccc1F [Compound 19f, 3-(4-((5-(2-(3-chloro-4-sulfamoylphenyl)propan-2-yl)-1-(4-fluoro-3-methoxyphenyl)-1H-imidazol-2-ylthio)methyl)-3,5-difluorophenyl)-N,N,N-trimethylpropan-1-aminium 2,2,2-trifluoroacetate] |
| < 100 | < 100 | CC[N+](CC)(CC)CCOc1cc(F)c(CSc2ncc(C(C)(C)c3ccc(Cl)c(OC)c3)n2-c2ccc(F)cc2)c(F)c1 [Compound 20a, 2-(4-((5(2-(4-chloro-3-methoxyphenyl)propan-2-yl)-(4-fluorophenyl)-1H-imidazol-2-ylthio)methyl)-3,5-difluorophenoxy)-N,N,N-triethylethanaminium chloride] |
| < 100 | < 100 | COc1cc(C(C)(C)c2cnc(SCc3c(F)cc(S(=O)(=O)N(CCCC[N+]45CCN(CC4)CC5)[C@H](C)C(=O)O)cc3F)n2-c2ccc(F)cc2)ccc1Cl [Compound 22a, N-[4-(4-aza-1-azoniabicyclo[2.2.2]oct-1-yl)butyl]-N-{[4-({[5-{1-[4-chloro-3-(methyloxy)phenyl]-1-methylethyl}-1-(4-fluorophenyl)-1H-imidazol-2-yl]thio}methyl)-3,5-difluorophenyl]sulfonyl}-D-alanine] |
| < 100 | < 100 | COc1cc(C(C)(C)c2cnc(SCc3c(F)cc(C(=O)NCC[N+]45CCN(CC4)CC5)cc3Cl)n2-c2ccc(F)cc2)ccc1F [Example 2a, 1-[2-({[3-chloro-5-fluoro-4-({[5-{1-[4-fluoro-3-(methyloxy)phenyl]-1-methylethyl}-1-(4-fluorophenyl)-1H-imidazol-2-yl]thio}methyl)phenyl]carbonyl}amino)ethyl]-4-aza-1-azoniabicyclo[2.2.2]octane] |
| < 100 | < 100 | COc1cc(-n2c(C(C)(C)c3ccc(Cl)c(Cl)c3)cnc2SCc2c(F)cc(C(=O)NCC[N+]34CCN(CC3)CC4)cc2Cl)ccc1F [Example 2b, 1-{2-[({3-chloro-4-[({5-[1-(3,4-dichlorophenyl)-1-methylethyl]-1-[4-fluoro-3-(methyloxy)phenyl]-1H-imidazol-2-yl}thio)methyl]-5-fluorophenyl}carbonyl)amino]ethyl}-4-aza-1-azoniabicyclo[2.2.2]octane] |
| < 100 | < 100 | COc1cc(C(C)(C)c2cnc(SCc3c(F)cc(C(=O)NC4CC[N+](C)(C)CC4)cc3Cl)n2-c2ccc(F)cc2)ccc1Cl [Example 2c, 4-({[3-chloro-4-({[5-{1-[4-chloro-3-(methyloxy)phenyl]-1-methylethyl}-1-(4-fluorophenyl)-1H-imidazol-2-yl]thio}methyl)-5-fluorophenyl]carbonyl}amino)-1,1-dimethylpiperidinium] |

More lines, now with the values behind:

| Structure (SMILES) | EC50 (h-TGR5) [nM] | EC50 (human TGR5 (h-TGR5)) [nM] |
| --- | --- | --- |
| COc1cc(C(C)(C)c2cnc(SCc3c(F)cc(OCC[N+](C)(C)C)cc3F)n2-c2ccc(F)cc2)ccc1Cl [Compound 20, 2-(4-((5-(2-(4-Chloro-3-methoxyphenyl)propan-2-yl)-1-(4-fluorophenyl)-1H-imidazol-2-ylthio)methyl)-3,5-difluorophenoxy)-N,N,N-trimethylethanaminium 2,2,2-trifluoroacetate] | < 100 | < 100 |
| COc1cc(C(C)(C)c2cnc(SCc3c(F)cc(S(=O)(=O)N(CCC[N+]45CCN(CC4)CC5)[C@H](C)C(=O)O)cc3F)n2-c2ccc(F)cc2)ccc1Cl [Compound 22, (R)-1-(3-(N-(1-carboxyethyl)-4-((5-(2-(4-chloro-3-methoxyphenyl)propan-2-yl)-1-(4-fluorophenyl)-1H-Imidazol-2-ylthio)methyl)-3,5-difluorophenylsulfonamido)propyl)-4-aza-1-azoniabicyclo[2.2.2]octane chloride] | < 100 | < 100 |
| COc1cc(C(C)(C)c2cnc(SCc3c(F)cc(C(=O)NCC[N+](C)(C)C)cc3Cl)n2-c2ccc(F)cc2)ccc1Cl [Example 1, 2-(3-chloro-4-((S-(2-(4-chloro-3-methoxyphenyl)propan-2-yl)-1-(4-fluorophenyl)-1H-imidazol-2-ylthio)methyl)-S-fluorobenzamido)-N,N,N-trimethylethanaminium chloride] | < 100 | < 100 |
| COc1cc(-n2c(C(C)(C)c3ccc(S(N)(=O)=O)c(Cl)c3)cnc2SCc2c(F)cc(C(=O)NCC[N+](C)(C)C)cc2Cl)ccc1F [Example 1a, 2-{[(4-{[(5-{1-[4-(aminosulfonyl)-3-chlorophenyl]-1-methylethyl}-1-[4-fluoro-3-(methyloxy)phenyl]-1H-imidazol-2-yl)thio]methyl}-3-chloro-5-fluorophenyl)carbonyl]amino}-N,N,N-trimethylethanaminium] | < 100 | < 100 |
| COc1cc(-n2c(C(C)(C)c3ccc4onc(N)c4c3)cnc2SCc2c(F)cc(C(=O)NCC[N+](C)(C)C)cc2Cl)ccc1F [Example 1b, 2-[({4-[({5-[1-(3-amino-1,2-benzisoxazol-5-yl)-1-methylethyl]-1-[4-fluoro-3-(methyloxy)phenyl]-1H-imidazol-2-yl}thio)methyl]-3-chloro-5-fluorophenyl}carbonyl)amino]-N,N,N-trimethylethanaminium] | < 100 | < 100 |
| CC(C)(c1ccc2onc(N)c2c1)c1cnc(SCc2c(F)cc(C(=O)NCC[N+](C)(C)C)cc2Cl)n1-c1ccc(F)cc1 [Example 1c, 2-[({4-[({5-[1-(3-amino-1,2-benzisoxazol-5-yl)-1-methylethyl]-1-(4-fluorophenyl)-1H-imidazol-2-yl}thio)methyl]-3-chloro-5-fluorophenyl}carbonyl)amino]-N,N,N-trimethylethanaminium] | < 100 | < 100 |
| COc1cc(C(C)(C)c2cnc(COc3c(F)cc(C(=O)NCC[N+](C)(C)C)cc3Cl)n2-c2ccc(F)cc2)ccc1Cl [Example 1e, 2-({[3-chloro-4-({[5-{1-[4-chloro-3-(methyloxy)phenyl]-1-methylethyl}-1-(4-fluorophenyl)-1H-imidazol-2-yl]methyl}oxy)-5-fluorophenyl]carbonyl}amino)-N,N,N-trimethylethanaminium] | < 100 | < 100 |
| COc1cc(C(C)(C)c2cnc(CCc3c(F)cc(C(=O)NCC[N+](C)(C)C)cc3Cl)n2-c2ccc(F)cc2)ccc1Cl [Example 1f, 2-{[(3-chloro-4-{2-[5-{1-[4-chloro-3-(methyloxy)phenyl]-1-methylethyl}-1-(4-fluorophenyl)-1H-imidazol-2-yl]ethyl}-5-fluorophenyl)carbonyl]amino}-N,N,N-trimethylethanaminium] | < 100 | < 100 |
| COc1cc(C(C)(C)c2cnc(SCc3c(F)cc(C(=O)NCC[N+]45CCN(CC4)CC5)cc3Cl)n2-c2ccc(F)cc2)ccc1Cl [Example 2, 1-(2-(3-chloro-4-((5-(2-(4-chloro-3-methoxyphenyl)propan-2-yl)-1-(4-fluorophenyl)-1H-imidazol-2-ylthio)methyl)-5-fluorobenzamido)ethyl)-4-aza-1-azoniabicyclo-[2.2.2]octane chloride hydrochloride] | < 100 | < 100 |
